# US20080063628A1, “METHODS TO PROMOTE CELL DIFFERENTIATION” (priority 2006, published 2008)
# How the values were obtained:
# Experiment in all cases: Two sequential high dose trichostatin A treatments (24 h each), gene expression by RT-PCR (Example 8)
# Assay type in all cases: cell-based, human
# [1] = tested on: late passage (P11) pancreatic-derived stromal cell line; details: for HNF-3 beta RT-PCR detection cycle / Pdx-1 RT-PCR detection cycle / glucagon RT-PCR detection cycle: 5.0 μM
# Procedure: (§1) Several cell lines obtained from different amniotic fluid specimens (see Example 14) and pancreas donors (see Example 13) were tested with similar results. Two lines at similar passage number but derived from different amniotic fluid specimens are shown in Table VIII-A and Table VIII-B for this example. One of these cell lines was also used in examples 2 and 4 above. In addition, this example also contains comparison data in Table VIII-C and Table VIII-D for a single pancreatic-derived stromal line grown to early and late passage number.
# (§2) Amniotic fluid derived cells or pancreatic-derived stromal cells were seeded into 24-well tissue culture plates at a density of 5000/cm^2 and cultured in AMNIOMAX (Invitrogen) or DMEM with 10% FBS respectively under standard cell culture conditions until confluent. After the cells reached confluency, amniotic fluid derived cells were treated at time 0 hours with a dose of 1.25 μM trichostatin A, and pancreatic-derived stromal cells were treated with a dose of 5.0 μM trichostatin A solubilized in DMSO and medium. At time 24 hours, cell cultures underwent a complete medium change to remove all traces of trichostatin A. At time 96 hours, cell cultures were re-fed with fresh medium and received a second dose of trichostatin A at the same concentration as used previously. At time 120 hours, cell cultures again underwent a complete medium change and were cultured for an additional 24 hours or […] total incubation time.
# (§3) Samples were taken daily for RT-PCR at the times indicated in Table VIII-A to D. The culture media was removed, and samples were rinsed in PBS then collected in RLT with β-mercaptoethanol (Qiagen). RNA was purified using the RNeasy Mini Kit (Qiagen) and RNA quantity and quality were determined using a spectrophotometer. cDNA was made using the iScript cDNA synthesis kit (BioRad).
# (§4) Samples of 20 ng cDNA were used in each reaction to determine the expression levels of the following genes in amniotic fluid-derived cells: Gata1, HNF-3 beta, Pdx-1, insulin, and Sox17. Similarly, samples of 20 ng cDNA were used in each reaction to determine the expression level of the following genes in pancreatic-derived cells: glucagon, HNF-3 beta, insulin and Pdx-1. Real-Time PCR was performed on the Applied Biosystems 7500, and data was analyzed using the accompanying software according to the methods described in Example 15.
# (§5) Real-time PCR amplifcation and quantitative analysis. Unless otherwise stated, all reagents were purchased from Applied Biosystems. Real-time PCR reactions were performed using the ABI PRISM™ 7500 Sequence Detection System. TAQMAN™ FAST UNIVERSAL PCR MASTER MIX™ (ABI, CA) was used with 20 ng of reverse transcribed RNA in a total reaction volume of 20 μl. Each cDNA sample was run in duplicate to allow correction of pipetting errors. Primers and FAM-labeled TAQMAN™ probes were used at concentrations of 200 nM. The level of expression for each target gene was normalized using the pre-developed Applied Biosystem's human glyceraldehyde-3-phosphate dehydrogenase (GAPDH) endogenous control kit. Primers and probes were designed using either ABI PRISM PRIMER EXPRESS™ software or a pre-developed ABI gene analysis kit. For each gene, either one of the primers or the probe were designed to be exon-boundary spanning. This eliminated the possibility of the primers/probe binding to any genomic DNA present. The primer and probe sets are listed as follows: Pdx-1 (Hs00426216), Insulin (Hs00355773), glucagon (Hs00174967), and FoxA2 (HNF 3-beta) (Hs00232764). The remaining primers were designed using the PRIMERS program (ABI, CA). After an initial 95° C. incubation for 20 sec, samples were cycled 40 times in two stages: a denaturation step at 95° C. for 3 sec, followed by an annealing/extension step at 60° C. for 30 sec. […]
# [2] = tested on: amniotic fluid-derived cell line; details: for Gata1 gene expression / HNF-3 beta gene expression / Insulin gene expression / Pdx-1 gene expression / sox17 gene expression: 1.25 μM 0-24 h + 96-120 h
# Procedure: as §1, §2, §3, §4, §5
# [3] = tested on: early passage (P5) pancreatic-derived stromal cell line; details: for HNF-3 beta gene expression / Insulin gene expression / Pdx-1 gene expression / glucagon gene expression: 5 μM 0-24 h + 96-120 h
# Procedure: as §1, §2, §3, §4, §5
# [4] = 5 μM 0-24 h + 96-120 h, 120 hrs
# [5] = 5.0 μM, following first treatment
compound,measurement,setting,value
CC(/C=C/C(=O)NO)=C\[C@@H](C)C(=O)c1ccc(N(C)C)cc1 [trichostatin A],Pdx-1 gene expression,"[1]; 5 μM 0-24 h + 96-120 h, 24 hrs",+ (detectable at less than 35 cycles with SE greater than 0.9)
same,Insulin gene expression,"[1]; 5 μM 0-24 h + 96-120 h, 48 hrs",+ (detectable at less than 35 cycles with SE greater than 0.9)
same,glucagon gene expression,"[1]; 5 μM 0-24 h + 96-120 h, 48 hrs",+ (detectable at less than 35 cycles with SE greater than 0.9)
same,glucagon gene expression,"[1]; 5 μM 0-24 h + 96-120 h, 72 hrs",+ (detectable at less than 35 cycles with SE greater than 0.9)
same,glucagon gene expression,"[1]; 5 μM 0-24 h + 96-120 h, 96 hrs",+ (detectable at less than 35 cycles with SE greater than 0.9)
same,HNF-3 beta gene expression,[1]; [4],+ (detectable at less than 35 cycles with SE greater than 0.9)
same,glucagon gene expression,[1]; [4],+ (detectable at less than 35 cycles with SE greater than 0.9)
same,glucagon gene expression,"[1]; 5 μM 0-24 h + 96-120 h, 144 hrs",+ (detectable at less than 35 cycles with SE greater than 0.9)
same,HNF-3 beta RT-PCR detection cycle,[1]; after the second treatment,36 cycles
same,HNF-3 beta RT-PCR detection cycle,[1]; following first treatment,32 cycles
same,Pdx-1 RT-PCR detection cycle,[1]; following first treatment,31 cycles
same,glucagon RT-PCR detection cycle,[1]; following first treatment,33 cycles
same,glucagon RT-PCR detection cycle,[1]; following the medium change,38 cycles
same,Pdx-1 RT-PCR detection cycle,[1]; following the second addition,34 cycles
same,Gata1 gene expression,[2]; 24 hrs,+ (detectable between 35 and 40 cycles by RT-PCR)
same,HNF-3 beta gene expression,[2]; 24 hrs,+++ (detectable at less than 35 cycles by RT-PCR with SE less than 0.9)
same,Insulin gene expression,[2]; 24 hrs,nd (not detectable at >40 cycles by RT-PCR)
same,Pdx-1 gene expression,[2]; 24 hrs,+++ (detectable at less than 35 cycles by RT-PCR with SE less than 0.9)
same,sox17 gene expression,[2]; 24 hrs,+++ (detectable at less than 35 cycles by RT-PCR with SE less than 0.9)
same,Gata1 gene expression,[2]; 48 hrs,nd (not detectable at >40 cycles by RT-PCR)
same,HNF-3 beta gene expression,[2]; 48 hrs,+++ (detectable at less than 35 cycles by RT-PCR with SE less than 0.9)
same,Insulin gene expression,[2]; 48 hrs,nd (not detectable at >40 cycles by RT-PCR)
same,Pdx-1 gene expression,[2]; 48 hrs,nd (not detectable at >40 cycles by RT-PCR)
same,sox17 gene expression,[2]; 48 hrs,+++ (detectable at less than 35 cycles by RT-PCR with SE less than 0.9)
same,Gata1 gene expression,[2]; 72 hrs,nd (not detectable at >40 cycles by RT-PCR)
same,HNF-3 beta gene expression,[2]; 72 hrs,+ (detectable between 35 and 40 cycles by RT-PCR)
same,Insulin gene expression,[2]; 72 hrs,+ (detectable between 35 and 40 cycles by RT-PCR)
same,Pdx-1 gene expression,[2]; 72 hrs,nd (not detectable at >40 cycles by RT-PCR)
same,sox17 gene expression,[2]; 72 hrs,+++ (detectable at less than 35 cycles by RT-PCR with SE less than 0.9)
same,Gata1 gene expression,[2]; 96 hrs,nd (not detectable at >40 cycles by RT-PCR)
same,HNF-3 beta gene expression,[2]; 96 hrs,+ (detectable between 35 and 40 cycles by RT-PCR)
same,Insulin gene expression,[2]; 96 hrs,+ (detectable between 35 and 40 cycles by RT-PCR)
same,Pdx-1 gene expression,[2]; 96 hrs,nd (not detectable at >40 cycles by RT-PCR)
same,sox17 gene expression,[2]; 96 hrs,+++ (detectable at less than 35 cycles by RT-PCR with SE less than 0.9)
same,Gata1 gene expression,[2]; 120 hrs,nd (not detectable at >40 cycles by RT-PCR)
same,HNF-3 beta gene expression,[2]; 120 hrs,+++ (detectable at less than 35 cycles by RT-PCR with SE less than 0.9)
same,Insulin gene expression,[2]; 120 hrs,nd (not detectable at >40 cycles by RT-PCR)
same,Pdx-1 gene expression,[2]; 120 hrs,+++ (detectable at less than 35 cycles by RT-PCR with SE less than 0.9)
same,sox17 gene expression,[2]; 120 hrs,+++ (detectable at less than 35 cycles by RT-PCR with SE less than 0.9)
same,Gata1 gene expression,[2]; 144 hrs,nd (not detectable at >40 cycles by RT-PCR)
same,HNF-3 beta gene expression,[2]; 144 hrs,+++ (detectable at less than 35 cycles by RT-PCR with SE less than 0.9)
same,Insulin gene expression,[2]; 144 hrs,nd (not detectable at >40 cycles by RT-PCR)
same,Pdx-1 gene expression,[2]; 144 hrs,nd (not detectable at >40 cycles by RT-PCR)
same,sox17 gene expression,[2]; 144 hrs,+++ (detectable at less than 35 cycles by RT-PCR with SE less than 0.9)
same,Gata-1 RT-PCR detection cycle,"[2]; 1.25 μM, following the first addition",37 cycles
same,Insulin RT-PCR detection cycle,"[2]; 1.25 μM, following the media change",36 cycles
same,HNF-3 beta RT-PCR detection cycle,"[2]; 1.25 μM, initial treatment",32 cycles
same,Pdx-1 RT-PCR detection cycle,"[2]; 1.25 μM, initial treatment (37 before treatment)",32 cycles
same,HNF-3 beta RT-PCR detection cycle,"[2]; 1.25 μM, second treatment",32 cycles
same,Pdx-1 RT-PCR detection cycle,"[2]; 1.25 μM, second treatment",34 cycles
same,HNF-3 beta gene expression,[3]; 24 hrs,+++ (detectable at less than 35 cycles by RT-PCR with SE less than 0.9)
same,Insulin gene expression,[3]; 24 hrs,nd (not detectable at >40 cycles by RT-PCR)
same,Pdx-1 gene expression,[3]; 24 hrs,++ (detectable at less than 35 cycles by RT-PCR with SE greater than 0.9)
same,glucagon gene expression,[3]; 24 hrs,+++ (detectable at less than 35 cycles by RT-PCR with SE less than 0.9)
same,HNF-3 beta gene expression,[3]; 48 hrs,nd (not detectable at >40 cycles by RT-PCR)
same,Insulin gene expression,[3]; 48 hrs,nd (not detectable at >40 cycles by RT-PCR)
same,Pdx-1 gene expression,[3]; 48 hrs,nd (not detectable at >40 cycles by RT-PCR)
same,glucagon gene expression,[3]; 48 hrs,+ (detectable between 35 and 40 cycles by RT-PCR)
same,HNF-3 beta gene expression,[3]; 72 hrs,nd (not detectable at >40 cycles by RT-PCR)
same,Insulin gene expression,[3]; 72 hrs,nd (not detectable at >40 cycles by RT-PCR)
same,Pdx-1 gene expression,[3]; 72 hrs,nd (not detectable at >40 cycles by RT-PCR)
same,glucagon gene expression,[3]; 72 hrs,+ (detectable between 35 and 40 cycles by RT-PCR)
same,HNF-3 beta gene expression,[3]; 96 hrs,nd (not detectable at >40 cycles by RT-PCR)
same,Insulin gene expression,[3]; 96 hrs,nd (not detectable at >40 cycles by RT-PCR)
same,Pdx-1 gene expression,[3]; 96 hrs,nd (not detectable at >40 cycles by RT-PCR)
same,glucagon gene expression,[3]; 96 hrs,nd (not detectable at >40 cycles by RT-PCR)
same,HNF-3 beta gene expression,[3]; 120 hrs,+ (detectable between 35 and 40 cycles by RT-PCR)
same,Insulin gene expression,[3]; 120 hrs,nd (not detectable at >40 cycles by RT-PCR)
same,Pdx-1 gene expression,[3]; 120 hrs,+++ (detectable at less than 35 cycles by RT-PCR with SE less than 0.9)
same,glucagon gene expression,[3]; 120 hrs,nd (not detectable at >40 cycles by RT-PCR)
same,HNF-3 beta gene expression,[3]; 144 hrs,nd (not detectable at >40 cycles by RT-PCR)
same,Insulin gene expression,[3]; 144 hrs,nd (not detectable at >40 cycles by RT-PCR)
same,Pdx-1 gene expression,[3]; 144 hrs,nd (not detectable at >40 cycles by RT-PCR)
same,glucagon gene expression,[3]; 144 hrs,+ (detectable between 35 and 40 cycles by RT-PCR)
same,Pdx-1 RT-PCR detection cycle,"[3]; 5.0 μM, after the second treatment",32 cycles
same,glucagon RT-PCR detection cycle,"[3]; 5.0 μM, end of the experiment",38 cycles
same,HNF-3 beta RT-PCR detection cycle,"[3]; 5.0 μM, following a second treatment",36 cycles
same,HNF-3 beta RT-PCR detection cycle,[3]; [5],34 cycles
same,glucagon RT-PCR detection cycle,[3]; [5],35 cycles
